Measurements from patent US20210400981A1, “ANTIMICROBIAL OZONE COMPOSITIONS AND METHODS OF USE THEREOF” (priority 2018, published 2021).

Assays:
[1] = test system: S. aureus subspecies aureus Rosenbach, strain FDA 209; test: ASTM E1153-14 glass coupon test, 5 min treatment, CFU plate counts; format: cell-based, Staphylococcus aureus
Text: A freeze-dried stock of Staphylococcus (S. aureus subspecies aureus Rosenbach, strain FDA 209) was obtained from American Type Culture Collection (ATCC, Manassas, Va.). After rehydration and growth in appropriate culture medium (Staphylococcus: BD Tryptic soy broth lot #4335611), both plated stocks and stocks frozen in glycerol were created. Staphylococcus was qualified for absorbance at 600 nm versus colony forming units (CFU) by serially diluting inoculum and reading absorbance followed by plating of dilutions onto agar plates. […] Twenty microliters of the resulting inoculum were used to coat glass slides (Fisher), also known as test squares or coupons with 10^5 to 10^7 cells, as calculated from the standard curve generated from the absorbance qualification data, and allowed to dry in a 37° C. incubator for 40 minutes following ASTM E1153-14 (www.astm.org/Standards/E1153.htm). […]
After incubation for 5 minutes following ASTM E1153-14, the supernatant in the vial was sampled and placed on test agar plates at a volume of 0.2 ml. […] Colony forming units (CFU) for each plate were counted, recorded and averaged for each sample. […] Sample CFUs were analyzed for statistical significance using the Mann Whitney U test with significance level α=0.05. […]

Salmonella enterica = test: Test coupons coated with Salmonella enterica, CFU reduction versus water; format: cell-based; conditions: 0.05M acetate buffer with or without 1.5 ppm aqueous ozone
Klebsiella = test: Test coupons coated with Klebsiella, CFU reduction versus water; conditions: acetate buffer with or without 1.5 ppm aqueous ozone
[2] = Ability of the buffer to accept aqueous ozone (kiosk sensors and instrumentation); format: physicochemical; conditions: buffer at approximate pH 5.5 to 6, ozonated with the CCT 1.0 kiosk
Text: Additionally, not all buffering compounds are suitable or effective for use as additives. […] The MES and ascorbate buffers were unable to accommodate the addition of aqueous ozone, showing no ozone in the resulting solution according to the kiosk sensors and instrumentation.

[3] = cited from earlier work
[4] = test system: Staphylococcus aureus subspecies aureus Rosenbach, strain FDA 209; test: AOAC method (961.02) spray disinfection of glass coupons, 10 min, turbidity (+/-) in Letheen broth; format: cell-based; conditions: for coupons negative: range-finding; for Percent kill / Number− / Number+: 10 min; for Number−: negative coupons; for Number+: positive coupons
Text: A freeze-dried stock of Staphylococcus (Staphylococcus aureus subspecies aureus Rosenbach, strain FDA 209), as specified by the AOAC method (961.02), was obtained from ATCC. After rehydration and growth in appropriate culture medium (BD Tryptic soy broth lot #4335611), both plated stocks and stocks frozen in glycerol were created. Staphylococcus was quantified for absorbance at 600 nm versus colony forming units (CFU) by serially diluting inoculum and reading absorbance followed by plating of dilutions onto agar plates. Prior to aqueous ozone testing, growth medium was inoculated and incubated in a shaker incubator (New Brunswick Scientific, serial #890615130) at 37° C. for 24 hours and then transfer cultured two additional times with a final incubation of 48 hours. Twenty microliters of the resulting inoculum was used to coat glass slides (Fisher), also known as test squares or coupons, with 10^5 to 10^7 cells, as calculated from the standard curve generated from the absorbance qualification data, and allowed to dry in a 37° C. incubator for 40 minutes following ASTM E1153-14. After drying, treated coupons were sequentially treated with 1.5 or 4 ppm aqueous ozone alone, 1.5 or 4 ppm aqueous ozone combined with a predetermined dilution of PAA, or PAA alone, then incubated for 10 minutes at room temperature. Additionally, immediately before and after testing three inoculated untreated coupons were place in labeled 50 ml conical tubes containing 20 ml of Letheen broth, vortexed, pooled, and plated to provide carrier counts. The mean log 10 density (LD) of the carrier counts for S. aureus must be between 5.0 and 6.5 in order for the test to be valid in this method.
Briefly, aqueous ozone was generated using the free standing CCT 1.0 unit (mounted in a kiosk enclosure) at a concentration of 1.5 ppm or 4 ppm. The water source utilized by the CCT 1.0 was clean, cold, softened Omaha municipal tap water. […] Aqueous ozone was sterile collected in a biological safety cabinet before and used immediately. Treatments were applied to the appropriate freshly prepared coupons contained within labeled petri dishes using a sprayer provided by CleanCore.
Following the testing period, coupons were removed from the individual petri dishes and transferred to corresponding labeled 50 ml conical tubes containing 20 ml of Letheen broth. One sterile un-inoculated coupon and one inoculated untreated coupon were also transferred to separate labeled 50 ml conical tubes containing 20 ml of Letheen broth in order to provide sterility and viability controls, respectively. All testing vials were shaken then incubated at 36±1° C. for 48±2 hours, then visually assessed for turbidity(+). Positive sample vials were plated to determine colony morphology similarity to test organism. All test plates were plated with 0.2 ml spread onto 2 replicates using a glass spreader and a Bel-Art inoculating turntable. Results of testing were analyzed for statistical significance in SPSS using a McNemar exact test for dichotomous data, with a significance level of α=0.05.

Campylobacter jejuni = test: Antimicrobial spray on inoculated chicken carcasses, rinsate plate counts; format: cell-based
Procedure: (§1) Briefly, chicken carcasses (70 whole hen carcasses for 7 treatments and 10 replications) were inoculated with 400 mL of a cocktail containing Salmonella Typhimurium (UK-1), E. coli (J53), and Campylobacter jejuni (3×10^7 CFU/mL) and allowed to adhere for 60 minutes at 4° C. for a final concentration of 10^5-10^6 CFU/g. Chicken carcasses then received no treatment (negative control) or were then treated by spraying (4×5 seconds) with tap water, tap water with 10 ppm ozone, tap water with PAA (50 ppm), tap water with PAA (500 ppm), tap water with 10 ppm ozone and PAA (500 ppm), or tap water with 10 ppm ozone and PAA (50 ppm). Further, the ambient PAA was measured using a PAA specific sensor during treatment. After treatment, chicken carcasses were rinsed in 400 mL of neutralizing buffered peptone water (20.0 g of buffered peptone, 7 g of refined soy lecithin or equivalent, 1.0 g of sodium thiosulfate, 12.5 g of sodium bicarbonate, per 1 liter of deionized water) for 2 minutes with agitation. Subsequently, the rinsate was serially diluted, spread plated on Xylose Lysine Deoxycholate (XLD) and Blood Free Campylobacter Agar (BFCA; modified Charcoal-Cefoperazone-Deoxycholate agar (mCCDA)), and incubated aerobically at 37° C. for 24 hours and microaerophilic at 42° C. for 48 hours, respectively. Log-transformed counts were analyzed using one-way ANOVA in JMP 14.0. Means were separated using Tukey's HSD when P≤0.05.

[5] = test system: Salmonella Typhimurium (UK-1); test: as above; format: cell-based; conditions: spray 4x5 seconds; 500 ppm PAA with or without 10 ppm ozone
Procedure: as §1

[6] = humans, after exposure; cited from earlier work
[7] = Table 16A, 1.5 ppm ozone and/or 15 ppm PAA
[8] = Table 16B, 4 ppm ozone and/or 15 ppm PAA
[9] = Table 16C, 1.5 ppm ozone and/or 10 ppm PAA
[10] = Table 16D, 1.5 ppm ozone and/or 20 ppm PAA, three experiments

CC(=O)O [Acetic acid]
log reduction of S. aureus CFU post treatment, compared to a water control ([1]; 0.05M acetate buffer with or without 1.5 ppm aqueous ozone): less than 1 log
reduction versus water ([1]; acetate buffer alone, no ozone): 66.92%
log reduction of Salmonella CFU versus water (Salmonella enterica): 1 log
log reduction in Klebsiella CFU versus the water control (Klebsiella): 1 log

O=C1O[C@H]([C@@H](O)CO)C(O)=C1O [Ascorbic acid]
ozone in the resulting buffered solution [2]: no ozone

O=C(O)CC(O)(CC(=O)O)C(=O)O [Citric acid]
ozone in the resulting buffered solution [2]: did accept ozonation

O=S(=O)(O)CCN1CCOCC1 [MES, 2-(N-morpholino) ethane sulfonic acid]
ozone in the resulting buffered solution [2]: no ozone

O=C(O)C(=O)O [Oxalic acid]
ozone in the resulting buffered solution [2]: did accept ozonation
pKa (second value) [3]: 4.40

CC(=O)OO [PAA, peracetic acid]
coupons negative ([4]; PAA 10 ppm in sterile water): 3 out of 10 coupons
coupons negative ([4]; PAA 25 ppm in sterile water): 6 out of 10 coupons
coupons negative ([4]; PAA 50 ppm in sterile water): 9 out of 10 coupons
coupons negative ([4]; PAA 100 ppm in sterile water): 9 out of 10 coupons
Percent kill [4, 7]: 76.7%
Number− [4, 7]: 23
Number+ [4, 7]: 7
Percent kill [4, 8]: 73.3%
Number− [4, 8]: 22
Number+ [4, 8]: 8
Percent kill [4, 9]: 6.7%
Number− [4, 9]: 2
Number+ [4, 9]: 28
Percent kill [4, 10]: 87.8%
Number− [4, 10]: 79
Number+ [4, 10]: 11
log CFU per gram of C. jejuni on carcasses (Campylobacter jejuni; spray 4x5 seconds, 500 ppm PAA with or without 10 ppm ozone): 4.81 log CFU/g
effect on Campylobacter compared to untreated controls (Campylobacter jejuni; spray on chicken carcasses, P≤0.05): significantly reduced
log CFU per gram of Salmonella on carcasses [5]: 5.86 log CFU/g
PAA level that can cause irritation to the upper respiratory tract [6]: 5 ppm

O=[O+][O-] [aqueous ozone, ozone]
Percent kill [4, 7]: 0.0%
Number− [4, 7]: 0
Number+ [4, 7]: 30
Percent kill [4, 8]: 0.0%
Number− [4, 8]: 0
Number+ [4, 8]: 30
Percent kill [4, 9]: 0.0%
Number− [4, 9]: 0
Number+ [4, 9]: 30
Percent kill [4, 10]: 0.0%
Number− [4, 10]: 0
Number+ [4, 10]: 90
